Experimental data taken from US11639350B2, “Heteroaryldihydropyrimidine derivatives and methods of treating hepatitis B infections” (Janssen Pharmaceutica NV, priority 2018, dated 2023).
Like-named read-outs stand apart in the source and are kept apart here.

What was measured:
[1] = Cytotoxicity determination in HepG2.2.15 cells (CCK-8); assay type: cell-based; details: human, 6 days of compound treatment, CCK-8, highest concentration 100 μM
How it was run: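 CC50 is from CCK-8 absorbance (450 nm, 630 nm reference) after 2.5 h with reagent. Before that, compounds were applied for six days, top concentration 100 μM, eight threefold dilutions, one mid-course medium change, to stably HBV-integrated HepG2.2.15 cells plated at 5,000/well in 2% FBS.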

HBV = HBV inhibitory activity: HBV DNA in the culture medium of HepG2.2.15 cells by q-PCR; assay type: cell-based
How it was run: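 Supernatant HBV DNA quantified by q-PCR after a 6-day compound exposure, with one mid-course medium change, of HepG2.2.15 cells (stably integrated HBV; 40,000 per well, 2% FBS). Eight-point 3-fold series topped at 10 μM for antiviral EC50; separate plates of 5,000 cells per well with 100 μM top give CC50.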

[2] = Hepatitis B virus, HepG2.2.15, 144 h, HepG2.2.15 cells, 6 days of compound treatment, HBV DNA in culture medium by q-PCR, highest concentration 10 μM, read-out: EC50

| SMILES | CC50 at 6 days [1] [µM] | EC50 (HBV; [2]) [µM] | EC50 (HBV; HepG2.2.15 cells, 6 days of compound treatment, HBV DNA in culture medium by q-PCR, highest concentration 10 μM, read-out: EC50) [µM] | EC50 (HBV; Hepatitis B virus, HepG2.2.15, 144 h) [µM] |
| --- | --- | --- | --- | --- |
| COC(=O)C1=C(C2CCN(S(=O)(=O)[C@H]3C[C@H](CO)C3)CC2)NC(c2nccs2)=N[C@@H]1c1ccc(F)cc1Cl [Compound 357A, (trans)-Methyl 4-(2-chloro-4-fluorophenyl)-6-(1-((3-(hydroxymethyl)cyclobutyl)sulfonyl)piperidin-4-yl)-2-(thiazol-2-yl)-1,4-dihydropyrimidine-5-carboxylate] | 13.6 | 0.037 |  |  |
| CCOC(=O)C1=C(C2CCN(S(=O)(=O)[C@H]3C[C@H](C(=O)O)C3)CC2)NC(c2nccs2)=NC1c1ccc(F)c(F)c1Br (stereo partly drawn) [Compound 199A, (trans)-3-((4-(6-(2-bromo-3,4-difluorophenyl)-5-(ethoxycarbonyl)-2-(thiazol-2-yl)-3,6-dihydropyrimidin-4-yl)piperidin-1-yl)sulfonyl)cyclobutanecarboxylic Acid] | 35.8 | 0.056 |  |  |
| COC(=O)C1=C([C@H]2CC[C@H](C(=O)O)CC2)NC(c2nccs2)=NC1c1ccc(F)c(F)c1Cl (relative stereo) [Compound 289A, (trans)-4-(6-(2-chloro-3,4-difluorophenyl)-5-(methoxycarbonyl)-2-(thiazol-2-yl)-3,6-dihydropyrimidin-4-yl)cyclohexanecarboxylic Acid] | 24.2 | 0.015 |  |  |
| COC(=O)C1=C(C2CCN(S(=O)(=O)CCC(=O)O)CC2)NC(c2nccs2)=NC1c1cccc(F)c1Cl (centres unmarked) [Compound 114, 3-((4-(6-(2-Chloro-3-fluorophenyl)-5-(methoxycarbonyl)-2-(thiazol-2-yl)-3,6-dihydro-pyrimidin-4-yl)piperidin-1-yl)sulfonyl)propanoic Acid] | 27.5 | 0.04 |  |  |
| CCOC(=O)C1=C(C2[C@H]3CN(S(C)(=O)=O)C[C@@H]23)NC(c2nccs2)=NC1c1ccc(F)cc1Cl (single isomer, unassigned) [Compound 41A] | 11.6 | 0.514 |  |  |
| COC(=O)C1=C(C2CCN(C(=O)C(C)(C)C)C2)NC(c2nccs2)=NC1c1ccc(F)cc1Cl (centres unmarked) [Compound 68, Methyl 4-(2-chloro-4-fluorophenyl)-6-(1-pivaloylpyrrolidin-3-yl)-2-(thiazol-2-yl)-1,4-dihydropyrimidine-5-carboxylate] | 72.9 | 0.581 |  |  |
| COC(=O)C1=C(C23CC(C(C)O)(C2)C3)NC(c2nccs2)=NC1c1ccc(F)cc1Cl (centres unmarked) [Compound 348B, Methyl 4-(2-chloro-4-fluorophenyl)-6-(3-(1-hydroxyethyl)bicyclo[1.1.1]pentan-1-yl)-2-(thiazol-2-yl)-1,4-dihydropyrimidine-5-carboxylate] | 25 | 0.063 |  |  |
| CCOC(=O)C[C@H]1CC[C@H](C2=C(C(=O)OC)C(c3cccc(F)c3Cl)N=C(c3nccs3)N2)CC1 (relative stereo) [Compound 28, Methyl 4-(2-chloro-3-fluorophenyl)-6-(trans-4-(2-ethoxy-2-oxoethyl)-cyclohexyl)-2-(thiazol-2-yl)-1,4-dihydropyrimidine-5-carboxylate] | 49.3 | 0.407 |  |  |
| COC(=O)C1=C(C2CCN(S(C)(=O)=O)CC2)NC(c2nccs2)=NC1c1ccc(Cl)cc1F (centres unmarked) [Compound 97B, 4-(4-Chloro-2-fluoro-phenyl)-6-(1-methanesulfonyl-pip-eridin-4-yl)-2-thiazol-2-yl-1,4-dihydro-pyrimidine-5-carboxylic Acid Methyl Ester] | > 100 | 0.047 |  |  |
| COC(=O)C1=C([C@H]2C[C@H](NC(C)=O)C2)NC(c2nccs2)=NC1c1ccc(F)cc1Cl (single isomer, unassigned) [Compound 89R, trans-Methyl 6-(3-acetamidocyclobutyl)-4-(2-chloro-4-fluoro-phenyl)-2-(thiazol-2-yl)-1,4-dihydropyrimidine-5-carboxylate] | 17.2 | 0.112 |  |  |
| COC(=O)C1=C(C2CCC(S(=O)(=O)N3CCC3)CC2)NC(c2nccs2)=NC1c1ccc(F)c(F)c1Cl (centres unmarked) [Compound 430, methyl 6-(4-(azetidin-1-ylsulfonyl)cyclohexyl)-4-(2-chloro-3,4-difluorophenyl)-2-(thiazol-2-yl)-1,4-dihydropyrimidine-5-carboxylate] | 15.1 | 0.015 |  |  |
| COC(=O)C1=C(C23CC(N(C[C@@H](O)CO)S(C)(=O)=O)(C2)C3)NC(c2nccs2)=NC1c1ccc(F)cc1Cl (single isomer, unassigned) [Compound 376C] | 95 |  | 0.075 |  |
| COC(=O)C1=C([C@@H]2CO[C@@H](C(=O)O)C2)NC(c2nccs2)=N[C@H]1c1cccc(F)c1Cl [Compound 212A] | > 100 | 1.01 |  |  |
| COC(=O)C1=C([C@H]2CC[C@H](S(=O)(=O)NC(C)C)CC2)NC(c2nccs2)=NC1c1ccc(F)c(F)c1Cl (single isomer, unassigned) [Compound 234D, (trans)-methyl 4-(2-chloro-3,4-difluorophenyl)-6-(4-(N-isopropylsulfamoyl)cyclohexyl)-2-(thiazol-2-yl)-1,4-dihydropyrimidine-5-carboxylate] | 4.2 | 0.013 |  |  |
| COC(=O)C1=C(C2CCN(S(=O)(=O)c3cnn(C[C@@H](C)O)c3)CC2)NC(c2nccs2)=NC1c1ccc(F)cc1Cl (stereo partly drawn) [Compound 360C, methyl 4-(2-chloro-4-fluorophenyl)-6-(1-((1-((R)-2-hydroxypropyl)-1H-pyrazol-4-yl)sulfonyl)piperidin-4-yl)-2-(thiazol-2-yl)-1,4-dihydropyrimidine-5-carboxylate] | 17 |  |  | 0.017 |
| COC(=O)C1=C([C@H]2CC[C@H](C(=O)OC)CC2)NC(c2nccs2)=NC1c1ccc(F)c(F)c1Cl (single isomer, unassigned) [Compound 288M, (trans)-Methyl 4-(2-chloro-3,4-difluorophenyl)-6-(4-(methoxycarbonyl)cyclohexyl)-2-(thiazol-2-yl)-1,4-dihydropyrimidine-5-carboxylate] | 20 | 0.063 |  |  |
| COC(=O)C1=C(C2CCN(C(=O)C3CC3)CC2)NC(c2nccs2)=NC1c1ccc(F)cc1Cl (centres unmarked) [Compound 102, Methyl 4-(2-chloro-4-fluorophenyl)-6-(1-(cyclopropanecarbonyl)-piperidin-4-yl)-2-(thiazol-2-yl)-1,4-dihydropyrimidine-5-carboxylate] | 57 | 0.13 |  |  |
| COC(=O)C1=C(C2CCC(N(C)C(C)=O)C2)NC(c2nccs2)=NC1c1cccc(F)c1Cl (centres unmarked) [Compound 170, Methyl 4-(2-chloro-3-fluorophenyl)-6-(3-(N-methylacetamido)cyclopentyl)-2-(thiazol-2-yl)-1,4-dihydropyrimidine-5-carboxylate] | 14.9 | 0.533 |  |  |
| COC(=O)C1=C(C2CCN(S(=O)(=O)[C@H]3CC[C@H](CC(=O)O)CC3)CC2)NC(c2nccs2)=NC1c1ccc(F)cc1Cl (relative stereo) [Compound 476A, (trans)-2-(4-((4-(6-(2-Chloro-4-fluorophenyl)-5-(methoxycarbonyl)-2-(thiazol-2-yl)-3,6-dihydropyrimidin-4-yl)piperidin-1-yl)sulfonyl)cyclohexyl)acetic Acid] | 30.4 | 0.014 |  |  |
